Source: patent US10544156B2, “Hemi-synthetic trilobine analogs for use as a drug” (PIERRE FABRE MEDICAMENT, priority 2015, dated 2020)

What was measured:
P73 promoter in HCT116 = assay: C5 DNA methylation analysis of P73 promoter; type: cell-based, human; details: after 7 days, at 0.32 μM
Method: (§1) Cancer cell lines (colon HCT116 or leukaemia KG1) were treated with the compounds as indicated in the Data Tables and then analysed as following.
(§2) DNA was isolated from cultured cells using the DNeasy Blood and Tissue Kit according to the manufacturer's specifications (Qiagen). DNA bisulphite conversion was performed on 2 μg of DNA using the EZ DNA Methylation-Gold Kit according to the manufacturer's specifications (Zymo Research) and bisulfited DNA was eluted with 10 μL of water.
(§3) Two different techniques were used to analyse the DNA methylation profile after bisulfite conversion of genomic DNA: (A) cloning and sequencing or (B) COBRA. The primers for each promoter are specified in Table 4.
(§4) Sequencing of bisulfite-treated DNA allowing resolution of the methylation state of every cytosine in the target sequence, at single molecule resolution, is considered as the “gold standard” for DNA methylation analysis.
(§5) Bisulfite-specific primers with a minimum length of 18 bp were designed using Primer 3 program. […]
(§6) PCR amplicons were cloned with the StrataClone Ultra Blunt PCR Cloning Kit (Agilent Technologies), according to the manufacturers' instructions and up to 24 clones were picked for sequencing. […] Electrophoregram files and methylation signals at a given CpG site were quantified using the BISMA software as described above.

[1] = tested on: P15 promoter in leukaemia KG1 cells; assay: C5 DNA methylation analysis of CDKN2B (P15) promoter; type: cell-based, human; details: after 3 days, at 0.32 μM
Method: as §1, §2, §3, §4, §5, §6

## CNC(=O)N1CCc2cc(OC)c3c4c2[C@@H]1Cc1ccc(cc1)Oc1cc(ccc1OC)C[C@H]1c2cc(c(cc2CCN1C)O3)O4 [Product 44]
P73 promoter in HCT116
  Demethylation P73*/HCT116: *−17% after 7 days

## COc1ccc2cc1Oc1ccc(cc1)C[C@@H]1NCCc3cc(OC)c4c(c31)Oc1cc3c(cc1O4)CCN(C)[C@H]3C2 [Trilobine (1), trilobine]
[1]
  Demethylation P15/KG1: −25% after

## CCN(CC)CCCNC(=S)N1CCc2cc3c4cc2[C@@H]1Cc1ccc(OC)c(c1)Oc1ccc(cc1)C[C@H]1c2c(cc(OC)c(c2O4)O3)CCN1C(=S)NCCCN(CC)CC [Product 41]
P73 promoter in HCT116
  Demethylation P73*/HCT116: *−24% after 7 days
